“And” between values parts separate entries of the source, which are not always exact repeats. Identical values can stand only once. Bridge positions count the residues as written; N and C are the ends. Square brackets hold non-standard residues; d marks the D form. Peptide text beside a SMILES is read from it. * marks the point of attachment. ξ: configuration not given here. Abu(4-SO3H) = N[C@@H](CCS(=O)(=O)O)C(=O)O; PhLac = O=C(O)[C@@H](O)Cc1ccccc1; ξPhLac = O=C(O)C(O)Cc1ccccc1; Carboxymethyl = O=C(O)C*; CH2CH2COOH = O=C(O)CC*

This note sets out measurements from patent US8980830B2 (priority 2007, dated 2015).

The test addresses Glucagon Receptor (Homo sapiens, UniProt P47871). In words: cAMP inhibition: antagonism of glucagon-induced cAMP at glucagon receptor. It counts as cell-based. Also on record: expressed in transfected cells; host or cells: HEK293. The settings on record: for cAMP pA2: Table 9.
[1] abbreviates: Glucagon antagonism IC50 (nM, inhibit 0.2-0.8 nM glucagon), Table 18.

Chain of Glucagon Receptor (P47871 26-477): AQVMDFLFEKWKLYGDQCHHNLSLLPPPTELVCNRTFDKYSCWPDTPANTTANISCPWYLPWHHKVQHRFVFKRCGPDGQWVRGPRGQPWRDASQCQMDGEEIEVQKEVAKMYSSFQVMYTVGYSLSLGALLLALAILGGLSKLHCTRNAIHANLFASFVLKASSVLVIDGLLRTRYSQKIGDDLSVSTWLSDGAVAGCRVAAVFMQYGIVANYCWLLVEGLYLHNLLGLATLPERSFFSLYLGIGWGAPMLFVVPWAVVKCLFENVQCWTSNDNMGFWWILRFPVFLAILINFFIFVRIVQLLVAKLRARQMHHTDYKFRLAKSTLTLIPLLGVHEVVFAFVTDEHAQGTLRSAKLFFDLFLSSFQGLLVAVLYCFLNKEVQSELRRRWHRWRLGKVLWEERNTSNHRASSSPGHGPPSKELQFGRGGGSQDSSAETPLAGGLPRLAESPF

With `CSCC[C@H](NC(=O)[C@H](CC(C)C)NC(=O)[C@H](Cc1c[nH]c2ccccc12)NC(=O)[C@H](CCC(N)=O)NC(=O)[C@@H](NC(=O)[C@H](Cc1ccccc1)NC(=O)[C@H](CC(=O)O)NC(=O)[C@H](CCC(N)=O)NC(=O)[C@H](C)NC(=O)[C@H](CCCNC(=N)N)NC(=O)[C@H](CCCNC(=N)N)NC(=O)[C@H](CO)NC(=O)[C@H](CC(=O)O)NC(=O)[C@H](CC(C)C)NC(=O)[C@H](Cc1ccc(O)cc1)NC(=O)[C@H](CCCCN)NC(=O)[C@H](CO)NC(=O)[C@H](Cc1ccc(O)cc1)NC(=O)[C@H](CSCC(=O)O)NC(=O)[C@H](CO)NC(=O)[C@@H](NC(=O)[C@@H](N)Cc1ccccc1)[C@@H](C)O)C(C)C)C(=O)N[C@@H](CC(N)=O)C(=O)N[C@H](C(N)=O)[C@@H](C)O` [[(CSA-1)^9]Glucagon(aa6-29)-NH2, [C^9(SCH2COOH)]Glucagon(aa6-29)-NH2] (H-FTSC(Carboxymethyl)YSKYLDSRRAQDFVQWLMNT-NH2; N-terminus assumed), the “cAMP pA2” value is given as 6.68 ± 1.05.

As for `CSCC[C@H](NC(=O)[C@H](CC(C)C)NC(=O)[C@H](Cc1c[nH]c2ccccc12)NC(=O)[C@H](CCC(N)=O)NC(=O)[C@@H](NC(=O)[C@H](Cc1ccccc1)NC(=O)[C@H](CC(=O)O)NC(=O)[C@H](CCC(N)=O)NC(=O)[C@H](C)NC(=O)[C@H](CCCNC(=N)N)NC(=O)[C@H](CCCNC(=N)N)NC(=O)[C@H](CO)NC(=O)[C@H](CC(=O)O)NC(=O)[C@H](CC(C)C)NC(=O)[C@H](Cc1ccc(O)cc1)NC(=O)[C@H](CCCCN)NC(=O)[C@H](CO)NC(=O)[C@H](Cc1ccc(O)cc1)NC(=O)[C@H](CSCCC(=O)O)NC(=O)[C@H](CO)NC(=O)[C@@H](NC(=O)[C@@H](N)Cc1ccccc1)[C@@H](C)O)C(C)C)C(=O)N[C@@H](CC(N)=O)C(=O)N[C@H](C(N)=O)[C@@H](C)O` [[(CSA-2)^9]Glucagon(aa6-29)-NH2, [C^9(SCH2CH2COOH)]Glucagon(aa6-29)-NH2] (H-FTSC(CH2CH2COOH)YSKYLDSRRAQDFVQWLMNT-NH2; N-terminus assumed), the “cAMP pA2” value is given as 6.64 ± 0.29.

Under setting [1], `CC[C@H](C)[C@H](NC(=O)[C@H](Cc1ccccc1)NC(=O)[C@H](CCC(=O)O)NC(=O)[C@@H]1CCCCNC(=O)CC[C@H](NC(=O)[C@H](CC(=O)O)NC(=O)[C@H](CC(C)C)NC(=O)[C@H](Cc2ccc(O)cc2)NC(=O)[C@H](CCCCN)NC(=O)[C@H](CO)NC(=O)[C@H](Cc2ccc(O)cc2)NC(=O)[C@H](CCC(=O)O)NC(=O)[C@H](CO)NC(=O)[C@@H](NC(=O)[C@H](Cc2ccccc2)NC(=O)[C@@H](NC(=O)CNC(=O)[C@H](CCC(=O)O)NC(=O)[C@H](C)N)[C@@H](C)O)[C@@H](C)O)C(=O)N[C@@H](CCC(N)=O)C(=O)N[C@@H](C)C(=O)N[C@@H](C)C(=O)N1)C(=O)N[C@@H](C)C(=O)N[C@@H](Cc1c[nH]c2ccccc12)C(=O)N[C@@H](CC(C)C)C(=O)N[C@@H](CCSC)C(=O)N[C@@H](CC(=O)O)C(=O)N[C@H](C(N)=O)[C@@H](C)O` [[A2E3, E9, E16K20(Lactam), GLP(23-32)]G(2-29)] (H-AEGTFTSEYSKYLDEQAAKEFIAWLMDT-NH2; lactam 15-19; N-terminus assumed) gave a half-inhibitory concentration (IC50) of 423 nM. Besides, the “character of antagonism (partial antagonist, wrapped cell)” value (Table 18) is on record as “partial”.

As to `CSCC[C@H](NC(=O)[C@H](CC(C)C)NC(=O)[C@H](Cc1c[nH]c2ccccc12)NC(=O)[C@H](CCC(N)=O)NC(=O)[C@@H](NC(=O)[C@H](Cc1ccccc1)NC(=O)[C@H](CC(=O)O)NC(=O)[C@@H]1CCCCNC(=O)CC[C@H](NC(=O)[C@H](CC(=O)O)NC(=O)[C@H](CC(C)C)NC(=O)[C@H](Cc2ccc(O)cc2)NC(=O)[C@H](CCCCN)NC(=O)[C@H](CO)NC(=O)[C@H](Cc2ccc(O)cc2)NC(=O)[C@H](CCC(=O)O)NC(=O)[C@H](CO)NC(=O)[C@@H](NC(=O)[C@H](Cc2ccccc2)NC(=O)[C@@H](NC(=O)CNC(=O)[C@H](CCC(=O)O)NC(=O)[C@H](C)N)[C@@H](C)O)[C@@H](C)O)C(=O)N[C@@H](CCCNC(=N)N)C(=O)N[C@@H](CCCNC(=N)N)C(=O)N[C@@H](C)C(=O)N1)C(C)C)C(=O)N[C@@H](CC(=O)O)C(=O)N[C@H](C(N)=O)[C@@H](C)O` [[A2E3, E16K20(Lactam),D28]G(2 ~ 29)], the IC50 under setting [1] worked out at 63.2 ± 2.3 nM.

In the case of `CSCC[C@H](NC(=O)[C@H](CC(C)C)NC(=O)[C@H](Cc1c[nH]c2ccccc12)NC(=O)[C@H](CCC(N)=O)NC(=O)[C@@H](NC(=O)[C@H](Cc1ccccc1)NC(=O)[C@H](CC(=O)O)NC(=O)[C@@H]1CCCCNC(=O)CC[C@H](NC(=O)[C@H](CC(=O)O)NC(=O)[C@H](CC(C)C)NC(=O)[C@H](Cc2ccc(O)cc2)NC(=O)[C@H](CCCCN)NC(=O)[C@H](CO)NC(=O)[C@H](Cc2ccc(O)cc2)NC(=O)[C@H](CCC(=O)O)NC(=O)[C@H](CO)NC(=O)[C@@H](NC(=O)[C@@H](O)Cc2ccccc2)[C@@H](C)O)C(=O)N[C@@H](CCCNC(=N)N)C(=O)N[C@@H](CCCNC(=N)N)C(=O)N[C@@H](C)C(=O)N1)C(C)C)C(=O)N[C@@H](CC(N)=O)C(=O)N[C@H](C(=O)NCC(=O)N1CCC[C@H]1C(=O)N[C@@H](CO)C(=O)N[C@@H](CO)C(=O)NCC(=O)N[C@@H](C)C(=O)N1CCC[C@H]1C(=O)N1CCC[C@H]1C(=O)N1CCC[C@H]1C(=O)N[C@@H](CO)C(N)=O)[C@@H](C)O` [[PLA6, E9, E16K20(Lactam)]], for the setting “Glucagon antagonism IC50 (nM, inhibit 0.2-0.8 nM glucagon), Table 16, combined results of three assays”, the IC50 came out at 20.5 ± 2.5 nM.

For `CC[C@H](C)[C@H](NC(=O)[C@H](Cc1ccccc1)NC(=O)[C@H](CCC(=O)O)NC(=O)[C@@H]1CCCCNC(=O)CC[C@H](NC(=O)[C@H](CC(=O)O)NC(=O)[C@H](CC(C)C)NC(=O)[C@H](Cc2ccc(O)cc2)NC(=O)[C@H](CCCCN)NC(=O)[C@H](CO)NC(=O)[C@H](Cc2ccc(O)cc2)NC(=O)[C@H](CC(=O)O)NC(=O)[C@H](CO)NC(=O)[C@@H](NC(=O)C(O)Cc2ccccc2)[C@@H](C)O)C(=O)N[C@@H](CCC(N)=O)C(=O)N[C@@H](C)C(=O)N[C@@H](C)C(=O)N1)C(=O)N[C@@H](C)C(=O)N[C@@H](Cc1c[nH]c2ccccc12)C(=O)N[C@@H](CC(C)C)C(=O)N[C@@H](CCSC)C(=O)N[C@@H](CC(=O)O)C(=O)N[C@H](C(N)=O)[C@@H](C)O` (stereo partly shown) [[PLA6, E16K20(lactam), GLP(23-32)]G(6-29)] (H-[ξPhLac]TSDYSKYLDEQAAKEFIAWLMDT-NH2; lactam 11-15), the IC50 under setting [1] was 11.7 nM and 73.5 nM.

Under “Glucagon antagonism IC50(nM, inhibit 0.5nM G), Table 25”, `CSCC[C@H](NC(=O)[C@H](CC(C)C)NC(=O)[C@H](Cc1c[nH]c2ccccc12)NC(=O)[C@H](CCC(N)=O)NC(=O)[C@@H](NC(=O)[C@H](Cc1ccccc1)NC(=O)[C@H](CC(=O)O)NC(=O)[C@H](CCC(N)=O)NC(=O)[C@H](C)NC(=O)[C@H](CCCNC(=N)N)NC(=O)[C@H](CCCNC(=N)N)NC(=O)[C@H](CO)NC(=O)[C@H](CC(=O)O)NC(=O)[C@H](CC(C)C)NC(=O)[C@H](Cc1ccc(O)cc1)NC(=O)[C@H](CCCCN)NC(=O)[C@H](CO)NC(=O)[C@H](Cc1ccc(O)cc1)NC(=O)[C@H](CCC(=O)O)NC(=O)[C@H](CO)NC(=O)[C@@H](NC(=O)[C@H](Cc1ccccc1)OC(=O)[C@@H](NC(=O)CNC(=O)[C@H](CCC(N)=O)NC(=O)[C@H](CO)NC(=O)[C@@H](N)Cc1c[nH]cn1)[C@@H](C)O)[C@@H](C)O)C(C)C)C(=O)N[C@@H](CC(N)=O)C(=O)N[C@H](C(N)=O)[C@@H](C)O` [[Thr5-O-PLA6,E9]Glucagon(1-29)] (H-HSQGT[PhLac]TSEYSKYLDSRRAQDFVQWLMNT-NH2; N-terminus assumed) displayed an IC50 of 14.2 ± 7.89 nM.

As for `CC(C)C[C@H](NC(=O)[C@H](Cc1ccc(O)cc1)NC(=O)[C@H](CCCCN)NC(=O)[C@H](CO)NC(=O)[C@H](Cc1ccc(O)cc1)NC(=O)[C@H](CCS(=O)(=O)O)NC(=O)[C@H](CO)NC(=O)[C@@H](NC(=O)[C@H](Cc1ccccc1)NC(=O)[C@@H](NC(=O)[C@H](CC(C)C)NC(=O)[C@H](CCC(N)=O)NC(=O)[C@@H](N)CO)[C@@H](C)O)[C@@H](C)O)C(=O)N[C@@H](CC(=O)O)C(=O)N[C@@H](CO)C(=O)N[C@@H](CCCNC(=N)N)C(=O)N[C@@H](CCCNC(=N)N)C(=O)N[C@@H](C)C(=O)N[C@@H](CCC(N)=O)C(=O)N[C@@H](CC(=O)O)C(=O)N[C@@H](Cc1ccccc1)C(=O)N[C@H](C(=O)N[C@@H](CCC(N)=O)C(=O)N[C@@H](Cc1ccccc1)C(=O)N[C@@H](CC(C)C)C(=O)N[C@@H](CC(C)C)C(=O)N[C@@H](CC(N)=O)C(=O)N[C@H](C(N)=O)[C@@H](C)O)C(C)C` [[desHis^1, Leu^4, hCys^9(SO3−), Phe^25, Leu^27] Glucagon-NH2] (H-SQLTFTS[Abu(4-SO3H)]YSKYLDSRRAQDFVQFLLNT-NH2; N-terminus assumed), the “glucagon antagonism, in words” value is given as “some level of antagonism”.

On to `CC(C)C[C@H](NC(=O)[C@H](Cc1ccc(O)cc1)NC(=O)[C@H](CCCCN)NC(=O)[C@H](CO)NC(=O)[C@H](Cc1ccc(O)cc1)NC(=O)[C@H](CCS(=O)(=O)O)NC(=O)[C@H](CO)NC(=O)[C@@H](NC(=O)[C@@H](NC(=O)CNC(=O)[C@H](CCC(N)=O)NC(=O)[C@@H](N)CO)[C@@H](C)O)[C@@H](C)O)C(=O)N[C@@H](CC(=O)O)C(=O)N[C@@H](CO)C(=O)N[C@@H](CCCNC(=N)N)C(=O)N[C@@H](CCCNC(=N)N)C(=O)N[C@@H](C)C(=O)N[C@@H](CCC(N)=O)C(=O)N[C@@H](CC(=O)O)C(=O)N[C@@H](Cc1ccccc1)C(=O)N[C@H](C(=O)N[C@@H](CCC(N)=O)C(=O)N[C@@H](Cc1ccccc1)C(=O)N[C@@H](CC(C)C)C(=O)N[C@@H](CC(C)C)C(=O)N[C@@H](CC(N)=O)C(=O)N[C@H](C(N)=O)[C@@H](C)O)C(C)C` [[desHis^1, desPhe^6, hCys^9(SO3−), Phe^25, Leu^27] Glucagon-NH2] (H-SQGTTS[Abu(4-SO3H)]YSKYLDSRRAQDFVQFLLNT-NH2; N-terminus assumed), for which the “glucagon antagonism, in words” value was “some level of antagonism”.
